Measured values from publication PMC5295379, “Acquired savolitinib resistance in non-small cell lung cancer arises via multiple mechanisms that converge on MET-independent mTOR and MYC activation” (Oncotarget, 2016).
pIC50: −log10 of the molar value.

Target: MET (Homo sapiens, UniProt P08581)
Experiment: pMET (Y1234/[…]) immunoblot densitometry in MET-amplified H1993 and EBC-1 cells, […] h dose response
Assay type: cell-based

MET, sequence (P08581 25-307): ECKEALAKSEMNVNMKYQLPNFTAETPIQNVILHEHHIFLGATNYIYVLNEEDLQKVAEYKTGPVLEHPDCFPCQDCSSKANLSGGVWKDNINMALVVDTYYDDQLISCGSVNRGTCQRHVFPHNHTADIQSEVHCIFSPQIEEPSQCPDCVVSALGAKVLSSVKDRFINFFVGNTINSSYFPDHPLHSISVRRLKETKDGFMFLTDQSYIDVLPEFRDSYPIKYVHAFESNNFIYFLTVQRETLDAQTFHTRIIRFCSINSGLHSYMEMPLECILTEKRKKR
MET, sequence (P08581 308-1390): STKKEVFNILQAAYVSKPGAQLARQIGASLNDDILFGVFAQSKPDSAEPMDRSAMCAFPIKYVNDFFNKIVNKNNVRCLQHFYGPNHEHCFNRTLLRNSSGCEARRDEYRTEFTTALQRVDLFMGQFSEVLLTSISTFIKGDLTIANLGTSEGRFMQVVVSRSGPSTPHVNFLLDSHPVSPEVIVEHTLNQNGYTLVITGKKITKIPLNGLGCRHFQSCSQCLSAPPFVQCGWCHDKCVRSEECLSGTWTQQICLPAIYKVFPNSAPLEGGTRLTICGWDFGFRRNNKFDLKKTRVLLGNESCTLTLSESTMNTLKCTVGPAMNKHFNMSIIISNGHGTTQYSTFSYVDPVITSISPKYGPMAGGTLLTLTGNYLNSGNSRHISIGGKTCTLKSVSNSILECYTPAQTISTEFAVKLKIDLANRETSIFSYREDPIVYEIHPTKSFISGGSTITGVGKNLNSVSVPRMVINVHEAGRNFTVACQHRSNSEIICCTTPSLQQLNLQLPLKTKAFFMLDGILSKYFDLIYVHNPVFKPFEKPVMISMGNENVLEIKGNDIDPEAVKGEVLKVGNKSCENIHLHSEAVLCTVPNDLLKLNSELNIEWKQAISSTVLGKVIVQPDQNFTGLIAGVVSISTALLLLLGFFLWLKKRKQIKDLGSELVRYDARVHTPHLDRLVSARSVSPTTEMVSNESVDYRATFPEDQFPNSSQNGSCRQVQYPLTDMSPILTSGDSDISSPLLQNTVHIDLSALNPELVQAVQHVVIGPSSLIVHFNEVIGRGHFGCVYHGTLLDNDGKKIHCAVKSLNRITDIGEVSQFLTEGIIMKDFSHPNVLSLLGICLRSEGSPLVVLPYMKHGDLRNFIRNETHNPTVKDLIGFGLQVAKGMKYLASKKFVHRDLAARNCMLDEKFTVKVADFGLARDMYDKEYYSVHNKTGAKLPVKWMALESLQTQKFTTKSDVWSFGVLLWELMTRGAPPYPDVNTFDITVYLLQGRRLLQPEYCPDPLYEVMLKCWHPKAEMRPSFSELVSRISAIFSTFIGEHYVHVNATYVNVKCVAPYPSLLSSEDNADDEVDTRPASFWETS

C[C@@H](c1ccc2nccn2c1)n1nnc2ncc(-c3cnn(C)c3)nc21 [savolitinib, (S)-1-(1-(Imidazo[1,2-a]pyridin-6-yl)ethyl)-6-(1-methyl-1H-pyrazol-4-yl)-1H-[1,2, 3]triazolo[4,5-b]pyrazine]
pIC50: 8.39
